In this data set the target is ATP-dependent translocase ABCB1 (P-glycoprotein) (Mus musculus, UniProt P21447). Kind of data set: TP_TRANSPORTER: inhibition of DOX efflux (DOX: 18? uM, XT-141: 100 uM) in P388/DOX cells. To be noted: probe DOX (doxorubicin), read-out: Activity. Format: functional, cell-based.

SMILES strings stand for the structures.

Sequence of ATP-dependent translocase ABCB1 (P-glycoprotein) (P21447 whole entry): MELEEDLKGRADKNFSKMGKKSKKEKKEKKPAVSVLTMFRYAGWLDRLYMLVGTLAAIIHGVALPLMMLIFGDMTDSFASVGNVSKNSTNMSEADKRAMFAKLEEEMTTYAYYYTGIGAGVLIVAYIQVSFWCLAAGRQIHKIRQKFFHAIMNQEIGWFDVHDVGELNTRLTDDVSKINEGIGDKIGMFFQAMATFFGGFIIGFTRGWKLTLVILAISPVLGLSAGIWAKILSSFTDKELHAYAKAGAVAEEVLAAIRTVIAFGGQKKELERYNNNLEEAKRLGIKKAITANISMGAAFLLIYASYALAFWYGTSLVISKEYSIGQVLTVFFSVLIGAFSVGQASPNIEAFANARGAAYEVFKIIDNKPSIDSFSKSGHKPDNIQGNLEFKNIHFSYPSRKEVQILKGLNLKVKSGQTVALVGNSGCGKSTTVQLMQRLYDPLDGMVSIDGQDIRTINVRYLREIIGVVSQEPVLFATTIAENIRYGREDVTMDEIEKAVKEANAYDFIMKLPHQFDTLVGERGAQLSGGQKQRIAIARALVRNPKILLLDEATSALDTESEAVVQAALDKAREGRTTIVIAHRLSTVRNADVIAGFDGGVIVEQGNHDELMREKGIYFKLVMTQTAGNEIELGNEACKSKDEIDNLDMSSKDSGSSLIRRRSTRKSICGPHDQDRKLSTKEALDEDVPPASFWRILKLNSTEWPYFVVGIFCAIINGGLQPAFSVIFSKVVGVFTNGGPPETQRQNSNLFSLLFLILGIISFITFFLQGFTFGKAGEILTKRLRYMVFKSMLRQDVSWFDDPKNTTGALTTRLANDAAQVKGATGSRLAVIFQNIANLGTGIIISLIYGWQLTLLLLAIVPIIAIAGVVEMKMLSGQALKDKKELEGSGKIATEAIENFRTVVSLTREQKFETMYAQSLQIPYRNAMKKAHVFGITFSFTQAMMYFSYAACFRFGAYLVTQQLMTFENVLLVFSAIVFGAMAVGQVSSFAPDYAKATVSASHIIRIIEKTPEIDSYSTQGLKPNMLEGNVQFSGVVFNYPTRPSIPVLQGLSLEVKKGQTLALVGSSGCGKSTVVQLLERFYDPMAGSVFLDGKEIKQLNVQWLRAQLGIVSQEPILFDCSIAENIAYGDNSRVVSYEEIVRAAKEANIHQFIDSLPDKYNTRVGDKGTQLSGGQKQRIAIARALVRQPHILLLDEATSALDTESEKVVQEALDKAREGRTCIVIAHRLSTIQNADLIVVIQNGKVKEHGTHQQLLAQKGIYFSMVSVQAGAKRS

Take `CCCn1c(=O)n(C)c(=O)c2c1ncn2CCCN(C)C`: the inhibition at 100 µM is 43%.

For the origin of these results see ChEMBL document CHEMBL2073768, “Effects of xanthine derivatives on the influx and efflux of doxorubicin in P388 and DOX-resistant P388 leukemia cells” (Toxicol Lett, 2002).
